The record followed here is ChEMBL document CHEMBL1201862, “PubChem BioAssay data set” (2004).

Among the test systems are TK-10; NCI-H226; MOLT-4; RXF 393; OVCAR-4; M14; MDA-N; SK-MEL-2; SK-OV-3; UACC-257; EKVX; Malme-3M; SK-MEL-5; CCRF-CEM; SF-268; SN12C; CAKI-1; MDA-MB-231; SNB-19.
Holding throughout (assay): NCI tumour cell line growth inhibition, 48 h

The structures appear in SMILES notation.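 A five-concentration, 48-hour dose response in 96-well plates underlies each endpoint, interpolated linearly between surrounding concentrations. GI50 is the concentration that inhibits growth by half.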 Active and inactive are the calls of the source. Rule as the data show it: active = GI50 up to about 1.1 µM and inactive = higher.

In the case of `O=C(O)c1cc(CCc2cc(O)ccc2O)ccc1O`, the GI50 in the test with TK-10 is > 100 µM (inactive); in the test with NCI-H226 it was > 100 µM (inactive); in the test on MOLT-4, 56.6 µM (inactive); in the test with RXF 393, > 100 µM (inactive); with OVCAR-4, > 100 µM (inactive); with M14, > 100 µM (inactive). Also, the GI50 with MDA-N is 14 µM (inactive); with SK-MEL-2, > 100 µM (inactive); in the test on SK-OV-3 it was > 100 µM (inactive); with UACC-257, > 100 µM (inactive); in the test on EKVX, > 100 µM (inactive); in the test with Malme-3M, > 100 µM (inactive). In addition, the GI50 in the test with SK-MEL-5 is > 100 µM (inactive); with CCRF-CEM, 26.9 µM (inactive); in the test with SF-268, > 100 µM (inactive); in the test with SN12C it was > 100 µM (inactive); in the test on CAKI-1, > 100 µM (inactive).

Consider `COc1nc(OC)nc(-c2cccc(F)c2)n1`, for which the GI50 is 18.3 µM (inactive) in the test on TK-10; 13.4 µM (inactive) in the test on NCI-H226; 14.5 µM (inactive) in the test on MDA-MB-231; 4.99 µM (inactive) with MOLT-4; 15.9 µM (inactive) with RXF 393; 15.7 µM (inactive) with OVCAR-4. Besides, the GI50 is 18 µM (inactive) with M14; 18.8 µM (inactive) in the test with SK-MEL-2; 15.9 µM (inactive) with SK-OV-3; 14.3 µM (inactive) in the test with UACC-257; 4.6 µM (inactive) with EKVX; 15.2 µM (inactive) with Malme-3M. Moreover, the GI50 was 15.6 µM (inactive) in the test with SK-MEL-5; 9.2 µM (inactive) in the test on CCRF-CEM; 14 µM (inactive) in the test with SF-268; 16.2 µM (inactive) in the test with SN12C; 16.9 µM (inactive) in the test on SNB-19; < 0.01 µM (active) in the test with CAKI-1.

`O=C1C(NCCc2cc(Cl)c(O)c(Cl)c2)=CC(=O)c2[nH]cnc21`: the GI50 in the test on TK-10 was 51.8 µM (inactive); in the test on MDA-MB-231, 31 µM (inactive); in the test with MOLT-4, 24.3 µM (inactive); in the test with M14, 10.7 µM (inactive); with MDA-N, 19.6 µM (inactive); in the test on SK-MEL-2 it was 19.2 µM (inactive). In addition, the GI50 was 26 µM (inactive) in the test with UACC-257; 32.1 µM (inactive) in the test with EKVX; 4.57 µM (inactive) in the test with Malme-3M; 17.3 µM (inactive) in the test on SK-MEL-5; 30 µM (inactive) with SN12C; 33.7 µM (inactive) in the test with SNB-19.

As to `CCCC(=O)Nc1ccc2c(c1)CN1C(=O)c3ccccc3C1=N2`, the GI50 in the test with TK-10, with NCI-H226, in the test on MDA-MB-231, in the test on MOLT-4, with OVCAR-4 and in the test with M14 was > 100 µM (inactive) in each case. Further, the GI50 with MDA-N, in the test on SK-MEL-2, in the test on SK-OV-3, in the test with UACC-257, with Malme-3M and with SK-MEL-5 was > 100 µM (inactive) each time. The GI50 in the test on SF-268, in the test with SN12C, with SNB-19 and with CAKI-1 was > 100 µM (inactive) each time.

As for `[O-][n+]1c2c([n+]([O-])c3ccccc31)CCCCCCCCCC2`, the GI50 was > 100 µM (inactive) with TK-10; 14.2 µM (inactive) in the test with NCI-H226; 45.5 µM (inactive) in the test on MOLT-4; > 100 µM (inactive) with M14; > 100 µM (inactive) with SK-MEL-2; > 100 µM (inactive) in the test on SK-OV-3. The GI50 with UACC-257 is 67.8 µM (inactive); in the test on EKVX, > 100 µM (inactive); with Malme-3M it was > 100 µM (inactive); with CCRF-CEM, 85.7 µM (inactive); in the test with SF-268, > 100 µM (inactive); with SN12C it was > 100 µM (inactive). In addition, the GI50 in the test with SNB-19 and with CAKI-1 was > 100 µM (inactive) in each case.

With `COc1ccc(N2C(=O)C3ON(C(C(N)=O)c4ccccc4)C(c4ccc(-c5ccccc5)cc4)C3C2=O)cc1` (stereo not given), the GI50 with TK-10, with NCI-H226, in the test on MDA-MB-231, in the test with MOLT-4, with RXF 393 and in the test on OVCAR-4 was > 50 µM (inactive) each time. Also, the GI50 in the test with M14 was 48.4 µM (inactive); in the test on SK-MEL-2 it was > 50 µM (inactive); with SK-OV-3, > 50 µM (inactive); in the test with UACC-257 it was > 50 µM (inactive); in the test on EKVX, > 50 µM (inactive); with Malme-3M it was 31.8 µM (inactive). Further, the GI50 in the test on CCRF-CEM is 10.2 µM (inactive); in the test on SF-268, > 50 µM (inactive); in the test with SN12C, > 50 µM (inactive); in the test with SNB-19, > 50 µM (inactive); in the test on CAKI-1 it was > 50 µM (inactive).

Consider `CC(=O)C1=C(C)N(c2ccccc2)C2(O)C=CC(O)=C3C(=O)c4ccccc4C(=O)C312` (stereo not given), for which the GI50 in the test with TK-10 is 24.7 µM (inactive); in the test with NCI-H226, 25.5 µM (inactive); with MDA-MB-231, 17.7 µM (inactive); in the test with MOLT-4 it was 8.28 µM (inactive); in the test on RXF 393, 11.6 µM (inactive); in the test with OVCAR-4 it was 20.9 µM (inactive). Besides, the GI50 in the test with M14 was 20.3 µM (inactive); with SK-MEL-2, 15.3 µM (inactive); in the test on SK-OV-3, 48.4 µM (inactive); in the test on UACC-257, 5.65 µM (inactive); with EKVX, 18.2 µM (inactive); with Malme-3M it was 0.748 µM (active). Moreover, the GI50 was 10.6 µM (inactive) in the test on SK-MEL-5; 3.73 µM (inactive) with CCRF-CEM; 20.2 µM (inactive) in the test with SF-268; 10.6 µM (inactive) in the test on SN12C; 17.1 µM (inactive) in the test with SNB-19; 14.3 µM (inactive) in the test with CAKI-1.

On to `COc1cc(NS(C)(=O)=O)ccc1NCc1c[nH]c2ccc3ncccc3c12`, for which the GI50 with TK-10 was 28 µM (inactive); in the test on NCI-H226 it was 12.3 µM (inactive); in the test with MDA-MB-231, 19.7 µM (inactive); in the test with MOLT-4, 5.83 µM (inactive); in the test with RXF 393 it was 5.55 µM (inactive); with OVCAR-4, 20.7 µM (inactive). For the same compound, the GI50 was 16.3 µM (inactive) in the test with M14; 19.5 µM (inactive) with SK-MEL-2; 16.5 µM (inactive) in the test with SK-OV-3; 17 µM (inactive) in the test on UACC-257; 20.2 µM (inactive) in the test on EKVX; 20.5 µM (inactive) in the test with Malme-3M. The GI50 with SK-MEL-5 is 12.4 µM (inactive); with CCRF-CEM, 1.83 µM (inactive); in the test with SF-268, 22.4 µM (inactive); with SN12C it was 20.6 µM (inactive); in the test on SNB-19 it was 30.1 µM (inactive); with CAKI-1, 22.4 µM (inactive).

Regarding `Clc1cc(Cl)c2n[se]nc2c1`, the GI50 in the test on TK-10 is 38.3 µM (inactive); in the test on MOLT-4, > 100 µM (inactive); with RXF 393, > 100 µM (inactive); in the test with OVCAR-4, > 100 µM (inactive); in the test with M14 it was > 100 µM (inactive); in the test on SK-MEL-2, 94 µM (inactive). Also, the GI50 in the test on SK-OV-3, with UACC-257, in the test on EKVX, in the test on Malme-3M, with SK-MEL-5 and in the test with CCRF-CEM was > 100 µM (inactive) throughout. The GI50 in the test with SF-268, with SN12C, in the test with SNB-19 and in the test with CAKI-1 was > 100 µM (inactive) throughout.

In the case of `N#CCCC(CC#N)N1CCN(C(CC#N)CCC#N)CC1` (stereo not given), the GI50 in the test with TK-10, with NCI-H226, in the test with MOLT-4, with RXF 393, with OVCAR-4 and in the test on M14 was > 100 µM (inactive) throughout. Besides, the GI50 with MDA-N, in the test with SK-OV-3, in the test with UACC-257, in the test with EKVX, in the test with Malme-3M and with SK-MEL-5 was > 100 µM (inactive) throughout. Also, the GI50 in the test with CCRF-CEM, with SF-268, in the test with SN12C, in the test on SNB-19 and in the test with CAKI-1 was > 100 µM (inactive) in each case.

`Clc1ccc(Cn2cc(/C=N/n3cnnc3)c3ccccc32)cc1`: the GI50 is 4.81 µM (inactive) with TK-10; 1.1 µM (active) with NCI-H226; 20.4 µM (inactive) in the test on MDA-MB-231; 63.8 µM (inactive) in the test with MOLT-4; 16.4 µM (inactive) in the test with RXF 393; 33.5 µM (inactive) in the test with OVCAR-4. The GI50 is 57 µM (inactive) with M14; 26.7 µM (inactive) in the test on SK-MEL-2; 42.6 µM (inactive) in the test with SK-OV-3; 46.5 µM (inactive) in the test on UACC-257; 20.6 µM (inactive) in the test with EKVX; 89.3 µM (inactive) in the test on Malme-3M. Moreover, the GI50 in the test with SK-MEL-5 was 19.5 µM (inactive); with CCRF-CEM it was 73.6 µM (inactive); with SF-268, 45.9 µM (inactive); in the test with SN12C, 45.9 µM (inactive); in the test on SNB-19, 56 µM (inactive); in the test with CAKI-1 it was 21.5 µM (inactive).

Consider `COC1=C2C[C@H](O)C(C)C[C@@]2(OC)OC1=O` (stereo not given in full), for which the GI50 in the test with MOLT-4, in the test on RXF 393, in the test with OVCAR-4, in the test on M14, with SK-MEL-2 and with SK-OV-3 was > 100 µM (inactive) throughout. Moreover, the GI50 in the test on UACC-257, in the test on Malme-3M, in the test with SK-MEL-5, with CCRF-CEM, in the test with SF-268 and in the test on SN12C was > 100 µM (inactive) in each case. For the same compound, the GI50 in the test with SNB-19 and in the test with CAKI-1 was > 100 µM (inactive) each time.
